Measured values published in patent publication US9096608B2, “Pharmaceutically active pyrazolo-triazine derivatives” (LEAD DISCOVERY CENTER GMBH, priority 2012, dated 2015).

What was measured:
Type in all cases: biochemical
CDK2/CycA = molecular target: T1, CDK2/CycA (Homo sapiens, UniProt P24941); assay: CDK2 Enzymatic Activity Assay (Lance Kinase Activity Assay, FRET); settings: Table 5B; symbols per IC50 ranges of b615
T1 construct: purchased Proqinase
In short: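 Compounds serially diluted 1:3 over 8 steps, run with CDK2/CycA, ULight-MBP substrate and ATP in HEPES pH 7.5 buffer for 1 h at room temperature. LANCE TR-FRET detection with Eu-anti-phospho-MBP after EDTA stop; IC50 from sigmoidal dose-response curves.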

CDK7/CycH/Mat1 = molecular target: T2, CDK7/CycH/Mat1 (Homo sapiens, UniProt P50613); assay: CDK7 Enzymatic Activity Assay (Lance Kinase Activity Assay, FRET); settings: Table 5A; 25 μM ATP final; read-out: CDK7: IC50 [mM] for CDK7 inhibition (the above defined ranges apply)
T2 construct: purchased Carna
T2 sequence (P50613 whole entry): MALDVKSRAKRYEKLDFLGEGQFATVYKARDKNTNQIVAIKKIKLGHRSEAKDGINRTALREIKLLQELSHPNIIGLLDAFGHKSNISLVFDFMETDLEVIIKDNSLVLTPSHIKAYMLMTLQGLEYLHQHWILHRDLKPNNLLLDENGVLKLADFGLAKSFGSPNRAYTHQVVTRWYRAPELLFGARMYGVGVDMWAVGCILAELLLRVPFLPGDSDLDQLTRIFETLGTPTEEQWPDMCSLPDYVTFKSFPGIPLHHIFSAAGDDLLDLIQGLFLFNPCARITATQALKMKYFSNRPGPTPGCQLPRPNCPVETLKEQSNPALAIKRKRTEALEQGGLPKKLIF
T2 sequence (P51946 whole entry partner): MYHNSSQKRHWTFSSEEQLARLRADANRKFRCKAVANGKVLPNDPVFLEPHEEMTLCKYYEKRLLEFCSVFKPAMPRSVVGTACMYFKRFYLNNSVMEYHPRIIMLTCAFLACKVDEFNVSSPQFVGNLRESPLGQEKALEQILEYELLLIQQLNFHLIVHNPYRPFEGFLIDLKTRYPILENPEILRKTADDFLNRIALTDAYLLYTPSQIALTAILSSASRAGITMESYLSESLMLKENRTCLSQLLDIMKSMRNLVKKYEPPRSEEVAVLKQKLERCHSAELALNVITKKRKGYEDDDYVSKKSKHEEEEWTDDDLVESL
T2 sequence (P51948 whole entry partner): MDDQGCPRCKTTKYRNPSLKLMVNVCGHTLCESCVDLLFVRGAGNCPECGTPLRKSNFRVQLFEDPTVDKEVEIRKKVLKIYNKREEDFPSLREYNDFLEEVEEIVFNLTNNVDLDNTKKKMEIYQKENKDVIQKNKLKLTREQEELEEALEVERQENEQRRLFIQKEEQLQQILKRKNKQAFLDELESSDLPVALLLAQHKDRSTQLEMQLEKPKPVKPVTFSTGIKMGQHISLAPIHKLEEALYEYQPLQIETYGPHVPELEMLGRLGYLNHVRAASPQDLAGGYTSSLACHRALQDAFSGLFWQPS
In short: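 TR-FRET (LANCE) kinase assay with ULight-MBP peptide substrate and Eu-labelled anti-phospho antibody; compounds in 8-point 1:3 series in HEPES 50 mM pH 7.5, MgCl2 10 mM, EGTA 1 mM, DTT 2 mM, 0.01% Tween-20.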

CDK9/Cyclin T1 = molecular target: T3, CDK9/Cyclin T1 (Homo sapiens, UniProt P50750); assay: CDK9 Enzymatic Activity Assay (Lance Kinase Activity Assay, FRET); settings: Table 5B; symbols per IC50 ranges of b615
T3 construct: purchased Invitrogen
T3 sequence (P50750 whole entry): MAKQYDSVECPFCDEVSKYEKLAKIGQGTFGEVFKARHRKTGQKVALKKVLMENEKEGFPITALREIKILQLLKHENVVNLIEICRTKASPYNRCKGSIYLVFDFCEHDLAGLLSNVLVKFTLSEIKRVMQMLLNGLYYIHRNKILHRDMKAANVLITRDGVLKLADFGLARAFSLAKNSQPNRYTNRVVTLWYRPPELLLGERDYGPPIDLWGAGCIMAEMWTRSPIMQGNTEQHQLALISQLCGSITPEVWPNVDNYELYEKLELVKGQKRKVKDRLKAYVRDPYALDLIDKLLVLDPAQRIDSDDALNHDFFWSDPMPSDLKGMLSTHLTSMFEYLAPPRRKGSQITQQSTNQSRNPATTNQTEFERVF
T3 sequence (O60563 whole entry partner): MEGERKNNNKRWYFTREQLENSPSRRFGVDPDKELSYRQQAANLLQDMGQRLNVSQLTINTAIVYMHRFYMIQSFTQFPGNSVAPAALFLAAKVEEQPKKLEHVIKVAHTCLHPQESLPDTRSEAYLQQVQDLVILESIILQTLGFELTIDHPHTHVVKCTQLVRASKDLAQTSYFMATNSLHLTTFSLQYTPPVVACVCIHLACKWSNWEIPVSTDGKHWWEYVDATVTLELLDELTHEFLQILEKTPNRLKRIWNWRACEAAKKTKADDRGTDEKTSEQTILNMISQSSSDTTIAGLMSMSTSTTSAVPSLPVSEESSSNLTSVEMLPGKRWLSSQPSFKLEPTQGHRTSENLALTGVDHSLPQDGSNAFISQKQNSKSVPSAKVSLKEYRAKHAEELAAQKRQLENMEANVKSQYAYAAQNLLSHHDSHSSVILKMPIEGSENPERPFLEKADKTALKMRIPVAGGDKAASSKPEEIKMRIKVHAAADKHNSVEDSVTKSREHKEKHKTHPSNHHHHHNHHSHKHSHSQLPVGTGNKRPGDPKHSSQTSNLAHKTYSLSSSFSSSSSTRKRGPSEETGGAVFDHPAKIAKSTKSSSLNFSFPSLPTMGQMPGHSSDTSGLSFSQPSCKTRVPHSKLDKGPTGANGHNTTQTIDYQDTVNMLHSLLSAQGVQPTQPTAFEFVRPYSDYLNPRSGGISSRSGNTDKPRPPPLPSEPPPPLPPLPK
In short: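 TR-FRET detection of ULight-MBP substrate phosphorylation by CDK9/cyclin T1 using a Eu-anti-phospho-MBP antibody, in 50 mM HEPES pH 7.5, 10 mM MgCl2, 1 mM EGTA, 2 mM DTT, 0.01% Tween-20. Kinase reaction 1 h at room temperature, then EDTA detection buffer for 1 h before reading.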

| SMILES | CDK2 IC50 range class (CDK2/CycA) | IC50 (CDK7/CycH/Mat1) [nM] | CDK9: Selectivity of CDK7 inhibition over CDK9 inhibition [fold] (CDK9/Cyclin T1) |
| --- | --- | --- | --- |
| COc1cccc([C@H](C)Nc2nc(N3CCCC4(CCCCN4)C3)nc3c(C(C)C)cnn23)c1 (stereo partly drawn) [(VIII-ah), 8-isopropyl-N-((S)-1-(3-methoxyphenyl)ethyl)-2-(1,8-diazaspiro[5.5]undecan-8-yl)pyrazolo[1,5-a][1,3,5]triazin-4-amine] | +++ (IC50>2500 nM) | < 10 | +++ (IC50>2500 nM) |
| COc1cccc([C@H](C)Nc2nc(N3CCC4(CCCN4)CC3)nc3c(C(C)C)cnn23)c1 [(VIII-ai), (S)-8-isopropyl-N-(1-(3-methoxyphenyl)ethyl)-2-(1,8-diazaspiro[4.5]decan-8-yl)pyrazolo[1,5-a][1,3,5]triazin-4-amine] | +++ (IC50>2500 nM) | < 10 | +++ (IC50>2500 nM) |
| COc1cccc([C@H](C)Nc2nc(N3CCC4(CCN4)CC3)nc3c(C(C)C)cnn23)c1 [(VIII-aj), (S)-8-isopropyl-N-(1-(3-methoxyphenyl)ethyl)-2-(1,7-diazaspiro[3.5]nonan-7-yl)pyrazolo[1,5-a][1,3,5]triazin-4-amine] | +++ (IC50>2500 nM) | < 10 | +++ (IC50>2500 nM) |
| COc1cccc([C@H](C)Nc2nc(N3CCCC34CCNCC4)nc3c(C(C)C)cnn23)c1 [(VIII-ak), (S)-8-isopropyl-N-(1-(3-methoxyphenyl)ethyl)-2-(1,8-diazaspiro[4.5]decan-1-yl)pyrazolo[1,5-a][1,3,5]triazin-4-amine] | +++ (IC50>2500 nM) | 10 to 30 | +++ (IC50>2500 nM) |
| COc1cccc([C@H](C)Nc2nc(N3CCC34CCNCC4)nc3c(C(C)C)cnn23)c1 [(VIII-al), (S)-8-isopropyl-N-(1-(3-methoxyphenyl)ethyl)-2-(1,7-diazaspiro[3.5]nonan-1-yl)pyrazolo[1,5-a][1,3,5]triazin-4-amine] | +++ (IC50>2500 nM) | < 10 | +++ (IC50>2500 nM) |
| COc1cccc([C@H](C)Nc2nc(N[C@@H]3CCCNC3)nc3c(C(C)C)cnn23)c1 [(VIII-h), 8-isopropyl-N4-((S)-1-(3-methoxyphenyl)ethyl)-N2-((R)-piperidin-3-yl)pyrazolo[1,5-a][1,3,5]triazine-2,4-diamine] | +++ (IC50>2500 nM) | 10 to 30 | +++ (IC50>2500 nM) |
| COc1cccc([C@H](C)Nc2nc(NCCCN3CCOCC3)nc3c(C(C)C)cnn23)c1 [(VIII-j), (S)-8-isopropyl-N4-(1-(3-methoxyphenyl)ethyl)-N2-(3-morpholinopropyl)pyrazolo[1,5-a][1,3,5]triazine-2,4-diamine] | +++ (IC50>2500 nM) | > 100 | +++ (IC50>2500 nM) |
| COc1cccc([C@H](C)Nc2nc(N(C)CCN3CCCC3)nc3c(C(C)C)cnn23)c1 [(VIII-k), (S)-8-isopropyl-N4-(1-(3-methoxyphenyl)ethyl)-N2-methyl-N2-(2-(pyrrolidin-1-yl)ethyl)pyrazolo[1,5-a][1,3,5]triazine-2,4-diamine] | +++ (IC50>2500 nM) | > 100 | +++ (IC50>2500 nM) |
| COc1cccc([C@H](C)Nc2nc(NCCN3CCCC3)nc3c(C(C)C)cnn23)c1 [(VIII-l), (S)-8-isopropyl-N4-(1-(3-methoxyphenyl)ethyl)-N2-(2-(pyrrolidin-1-yl)ethyl)pyrazolo[1,5-a][1,3,5]triazine-2,4-diamine] | +++ (IC50>2500 nM) | > 100 | +++ (IC50>2500 nM) |
| COc1cccc([C@H](C)Nc2nc(NCCN3CCOCC3)nc3c(C(C)C)cnn23)c1 [(VIII-m), (S)-8-isopropyl-N4-(1-(3-methoxyphenyl)ethyl)-N2-(2-morpholinoethyl)pyrazolo[1,5-a][1,3,5]triazine-2,4-diamine] | +++ (IC50>2500 nM) | > 100 | +++ (IC50>2500 nM) |
| COc1cccc([C@H](C)Nc2nc(N3CC(N4CCCC4=O)C3)nc3c(C(C)C)cnn23)c1 [(VIII-n), (S)-1-(1-(8-isopropyl-4-((1-(3-methoxyphenyl)ethyl)amino)pyrazolo[1,5-a][1,3,5]triazin-2-yl)azetidin-3-yl)pyrrolidin-2-one] | +++ (IC50>2500 nM) | > 100 | +++ (IC50>2500 nM) |
| COc1cccc([C@H](C)Nc2nc(N3CC(N4CCC(F)(F)C4)C3)nc3c(C(C)C)cnn23)c1 [(VIII-o), (S)-2-(3-(3,3-difluoropyrrolidin-1-yl)azetidin-1-yl)-8-isopropyl-N-(1-(3-methoxyphenyl)ethyl)pyrazolo[1,5-a][1,3,5]triazin-4-amine] | +++ (IC50>2500 nM) | > 100 | +++ (IC50>2500 nM) |
| COc1cccc([C@H](C)Nc2nc(N3CCCC(N)C3)nc3c(C(C)C)cnn23)c1 (stereo partly drawn) [(VIII-p), 2-(3-aminopiperidin-1-yl)-8-isopropyl-N-((S)-1-(3-methoxyphenyl)ethyl)pyrazolo[1,5-a][1,3,5]triazin-4-amine] | +++ (IC50>2500 nM) | > 100 | +++ (IC50>2500 nM) |
| COc1cccc([C@H](C)Nc2nc(N3CCC(N)C3)nc3c(C(C)C)cnn23)c1 (stereo partly drawn) [(VIII-q), 2-(3-aminopyrrolidin-1-yl)-8-isopropyl-N-((S)-1-(3-methoxyphenyl)ethyl)pyrazolo[1,5-a][1,3,5]triazin-4-amine] | +++ (IC50>2500 nM) | > 100 | +++ (IC50>2500 nM) |
| COc1cccc([C@H](C)Nc2nc(N3CC4CCNC4C3)nc3c(C(C)C)cnn23)c1 (stereo partly drawn) [(VIII-r), 2-(hexahydropyrrolo[3,4-b]pyrrol-5(1H)-yl)-8-isopropyl-N-((S)-1-(3-methoxyphenyl)ethyl)pyrazolo[1,5-a][1,3,5]triazin-4-amine] | +++ (IC50>2500 nM) | > 100 | +++ (IC50>2500 nM) |
| COc1cccc([C@H](C)Nc2nc(N(C)CCN3CCOCC3)nc3c(C(C)C)cnn23)c1 [(VIII-s), (S)-8-isopropyl-N4-(1-(3-methoxyphenyl)ethyl)-N2-methyl-N2-(2-morpholinoethyl)pyrazolo[1,5-a][1,3,5]triazine-2,4-diamine] | +++ (IC50>2500 nM) | > 100 | +++ (IC50>2500 nM) |
| COc1cccc([C@H](C)Nc2nc(NCCCN)nc3c(C(C)C)cnn23)c1 [(VIII-t), (S)-N2-(3-aminopropyl)-8-isopropyl-N4-(1-(3-methoxyphenyl)ethyl)pyrazolo[1,5-a][1,3,5]triazine-2,4-diamine] | +++ (IC50>2500 nM) | 30 to 100 | +++ (IC50>2500 nM) |
| COc1cccc([C@H](C)Nc2nc(NCCOCCN)nc3c(C(C)C)cnn23)c1 [(VIII-u), (S)-N2-(2-(2-aminoethoxy)ethyl)-8-isopropyl-N4-(1-(3-methoxyphenyl)ethyl)pyrazolo[1,5-a][1,3,5]triazine-2,4-diamine] | +++ (IC50>2500 nM) | 30 to 100 | +++ (IC50>2500 nM) |
| COc1cccc([C@H](C)Nc2nc(NCC3CCNC3)nc3c(C(C)C)cnn23)c1 (stereo partly drawn) [(VIII-w), 8-isopropyl-N4-((S)-1-(3-methoxyphenyl)ethyl)-N2-(pyrrolidin-3-ylmethyl)pyrazolo[1,5-a][1,3,5]triazine-2,4-diamine] | +++ (IC50>2500 nM) | 30 to 100 | +++ (IC50>2500 nM) |
| COC(=O)C(CN)Nc1nc(N[C@@H](C)c2cccc(OC)c2)n2ncc(C(C)C)c2n1 (stereo partly drawn) [(VIII-y), methyl 3-amino-2-((8-isopropyl-4-(((S)-1-(3-methoxyphenyl)ethyl)amino)pyrazolo[1,5-a][1,3,5]triazin-2-yl)amino)propanoate] | +++ (IC50>2500 nM) | > 100 | +++ (IC50>2500 nM) |
